Measurements reported in ChEMBL document CHEMBL1921695, “Cembranolides from the leaves of Croton gratissimus” (J Nat Prod, 2011).
Converted amounts (≈) assume the structure as drawn.

System: Plasmodium falciparum
Assay: Antiplasmodial activity against chloroquine-sensitive Plasmodium falciparum D10 infected in human erythrocytes after 3 to 4 days by lactate dehydrogenase assay
Assay type: functional, organism-based

Compound | IC50
C/C1=C\CC[C@](C)(O)/C=C/[C@@H](C(C)C)CCC2=C[C@@H](C1)OC2=O (relative stereo) | 20.8 µg/mL (≈ 65.3 µM)
C=C1C[C@@H]2C=C(CC[C@](O)(C(C)C)/C=C/[C@@](C)(O)CC[C@H]1OC(C)=O)C(=O)O2 (relative stereo) | 13.5 µg/mL (≈ 34.4 µM)
